Laboratory results as given in US20050163852A1, “Process for loading and thermodynamically activating drungs on polymers by means of supercritical fluids” (priority 2002, published 2005).

Assay: Activation level by Differential Scanning Calorimetry (fraction of crystalline form)
Format: physicochemical
Conditions: DSC, ΔHmelting/ΔH0 normalized to drug assayed in the polymer
Method: The presence of amorphous, nanocrystalline or crystal phase can be detected by means of Differential Scanning Calorimetry (DSC). Compared to the sharp melting peak of the drug crystal, the nanocrystals present a broader peak with a markedly lower maximum of temperature (I. Colombo et al. 4th Int. Conf. Pharm. Technol., 1986; F. Carli et al. Acta Pharm. Jugosl. 38, 361, 1988).
In the examples, the activation level is expressed as the fraction of crystalline form. It is determined by comparing the enthalpy relative to the melting of the crystals in the polymer (ΔHmelting) to that of pure drug (ΔH0). The ΔHmelting/ΔH0 ratio, normalized in accordance with the drug assayed in the polymer, is then considered equal to the fraction of crystalline form. The higher the amount of crystals (higher crystallinity), the lower the thermodynamic activation level of the drug.

Compound	Crystallinity (ibuprofen, supercritical CO2)	Crystallinity (ibuprofen, supercritical ethylene)	Crystallinity (nimesulide, supercritical CO2)
CC(C)Cc1ccc(C(C)C(=O)O)cc1 (stereo not drawn) [Ibuprofen, ibuprofen]	100%	100%	
CS(=O)(=O)Nc1ccc([N+](=O)[O-])cc1Oc1ccccc1 [Nimesulide, nimesulide]			100%
